Values joined by “and” are separate entries in the source; they are usually repeats but may differ in a detail not shown here. Equal values may be shown once. Each block holds one compound with its values, some of them ahead of it.
Columns and labels:
[1] = test system: dogs with electrically induced ventricular fibrillation; assay: Phase Ib: cardiac resuscitation of dogs after induced ventricular fibrillation (Thumper CPR, external defibrillation, T3a bolus into right ventricle); format: in vivo, dog; conditions: Post T3a (15 m), individual dogs
Protocol: All animals were fasted overnight and anesthesia was induced by intravenous sodium thiopental (Pentothal sodium 15-25 mg/kg). After intubation and ventilation by a ventilator (North American Dräger, Anesthesia and Ventilator, Model AVE-K, Serial No. 5033), anesthesia was maintained by 2% isoflurane (Isoflurane Vaporizer, R-Vapor, R-24045), and oxygen. ECG (Hewlett Packard Model No. 78346A). Oxygen saturation was monitored continuously. Preoperatively, all animals received Acepromazine maleate, 0.25-0.5 mg, I.M, lactated Ringer's solution was given intravenously (250 ml-350 ml/hr) during the procedure.
A 8.5Fr. catheter sheath was introduced into the right femoral artery and the side arm was connected to a fluid transducer for the continuous measurement of systemic arterial blood pressure. A 7Fr. Bipolar Multipurpose A-2 Electrode Catheter, 1 Lumelec™ (Lot no. 30395908, Catalog no. 528-724, Cordis, USA) tipped with pressure transducer with 2 side holes, 2 electrodes with an open end, 125 cm long, and 0.038 inch diameter, was advanced through the catheter sheath, and placed into the left ventricle. Continuous measurement of the systemic left ventricular pressure was obtained. Analog signals from the pressure transducers were obtained using an amplifier (PM-1000, CWE Inc., Ardmore, Pa.).
A 8.5Fr. catheter sheath was introduced into the right femoral vein and a 7Fr. MP A2, Multipurpose high flow catheter (catalog no. 527-742, Cordis, USA) with open end and side holes was placed into the right ventricle for T3a injections. Another 7Fr. catheter sheath was introduced into the left femoral artery and a 6Fr. pigtail catheter (catalog no. 527-654S, 110 cm, 155° angled) was placed into the descending aorta for the collection of aortic blood samples after T3a injections into the right ventricle. ECG (Hewlett-Packard, Model No. 78346A, Ser. No. 2320A00522) was continuously monitored. A temperature-monitoring device (T. SIN, Japan, designed for YSI series 400 thermistors), connected to the data acquisition system, was introduced into the external ears of all the animals to continuously measure body temperature.
The two distal ends of the 7Fr. Bipolar Multipurpose A-2 Electrode Catheter were connected to a Transformer. The electrical system can deliver 15V, 20 mA AC current through the pacing catheter system. The anesthesia was stopped. A venous blood sample from the right ventricle was obtained. Lid reflexes returned in several minutes.
The lid reflexes were checked by the finger method system and when frequent blinking of the lids was obtained, procedures for the ventricular fibrillation were carried out. […]
The force of compression necessary to achieve this baseline condition was recorded and not altered during subsequent provision of chest compressions. […]

[2] = test system: dogs with electrically induced ventricular fibrillation; assay: Phase Ia (methodology section): fibrillation/defibrillation in dogs with T3a or epinephrine; format: in vivo, dog; conditions: individual dogs
Description: Phase 1a was dedicated towards developing the basic methodology in the initial experiments, manual chest compression (CPR) and an internal defibrillator were employed. Induction of ventricular fibrillation and defibrillation were problematic with the internal electrodes because of the size mismatch: electrodes designed for humans being used in a smaller sized animal. In later experiments, the internal system was replaced with an LV pacing catheter connected to AC current via a step-down transformer (to induce ventricular fibrillation), and a new external, “hands-off” defibrillator. The manual chest compression was replaced with a THUMPER CPR system.
In the experiments, T3a was given 30 seconds before defibrillation. Preferably, T3a injection was given 60 to 90 seconds after defibrillation.
The results section was divided into Phases Ia (n=9) and Ib (n=8). The hemodynamic data were not consistently available in Phase Ia as there was no spontaneous or induced recovery except for 3 animals. Use of T3a was limited to only 3 dogs in this phase although epinephrine was used in 5 of them. This phase was dedicated towards the development of the Phase Ib parameters.
HVS-02 Fibrillator and Defibrillator were used in the tests. The operating instructions for the HVS-02 Fibrillator and Defibrillator can be found in the Manual for HVS-02 Fibrillator and Defibrillator.
Phase Ia was dedicated towards developing the basic methodology. […] In 3 animals, the hemodynamic data after defibrillation were less than the pre-fibrillatory data. […] In the experiments, internal defibrillator was used for the preliminary experiments and T3a was given just before defibrillation (30 seconds). Moreover, THUMPER CPR was used in the last 2 dogs instead of manual CPR. Thumper CPR worked well and it was used for the subsequent T3a experiments of Phase Ib. Manual chest compression was maintained for another 5 minutes after defibrillation and T3a or epinephrine injections. Bolus epinephrine injection (100 μg/kg) was used in 5 random dogs.

[3] = Pharmacokinetic studies in a rodent model: serum T3 after single intramuscular bolus; format: in vivo, rat; conditions: rats; for Serum T3 level as % of the peak value: within 2 hours of injection
[4] = Serum total T3 levels after T3a bolus during cardiac resuscitation in dogs; format: in vivo, dog
Protocol: Subsequent blood samples were obtained from the arterial circulation at 0.5 to 1.5 minutes after the bolus injection, and also at 15 to 20 minutes and 30 minutes, respectively.
Before sending the blood sample for immunoassay, in each experiment all the blood samples were collected in red-topped serum separator tubes. The tubes were centrifuged at 2500 rpm on a tabletop centrifuge for 10 minutes at 4° C. to separate the cells from the serum. The blood samples were then stored and frozen at −4° C.

[5] = test system: purified cultured cardiac myocytes; conditions: 125I-T3 at 10^−8 M
[6] = background statement; bound to thyroxine-binding globulin in human serum; cited from earlier work

SMILES: CNC[C@H](O)c1ccc(O)c(O)c1 [Epi, epinephrine]
- D. AoP [1]: 64.0 mmHg
- Recover [1]: Yes
- S. AoP [1]: 82.7 mmHg
- S. LVP [1]: 103.0 mmHg
- Recover ([2]; After D-Fib (+ drug)): No (2×) and Yes
- D. AoP ([2]; Post (15 m)): 76.1 mmHg
- Recover ([2]; Post (15 m)): No (2×) and Yes
- S. AoP ([2]; Post (15 m)): 89.3 mmHg
- S. LVP ([2]; Post (15 m)): 110.2 mmHg

- Half-life of T3 in serum, 5 μg/kg versus 100 μg/kg ([3]; i.m.): identical
- Serum T3 level as % of peak values ([3]; i.m., 24 hours after injection, within normal physiological range): 10%
- Serum T3 level as % of the peak value ([3]; i.m., high dose 100 μg/Kg): 64%
- Serum T3 level as % of the peak value ([3]; i.m., low dose 5 μg/Kg): 90%
- Time to peak serum T3 values ([3]; intramuscular, 5 μg/Kg and 100 μg/Kg): ≤ 30 min
- Time serum T3 levels were maintained at high level ([4]; 4 μg T3/kg): 30 min
- Serum T3 levels ([4]; 4 μg T3/kg, within 2 minutes of drug administration): greater than 9000 ng/dl
- Increase of serum T3 level over baseline ([4]; bolus 4 μg/kg, one minute after injection, baseline 87±6 ng/dl): 100 fold
SMILES: N[C@@H](Cc1cc(I)c(Oc2ccc(O)c(I)c2)c(I)c1)C(=O)O [T3, 3,5,3′-triiodothyronine]
- Time to detection of T3 in the nucleus of the cell [5]: ≤ 5 min

SMILES: NC(Cc1cc(I)c(Oc2cc(I)c(O)c(I)c2)c(I)c1)C(=O)O (stereo not shown) [T4]
- Half-life [6]: 140 to 170 h

— patent US20050059574A1 (priority 2000, published 2005)
